Series [1] deals with rat. Particulars: Prenatal developmental toxicity study, sprague dawley, Oral, Gavage/Intubation, dose end: 15 GD.
For series [2], the system named is rat. Particulars: Subchronic oral toxicity in rodents, fischer, Feed, dose end: 13 week, group: systemic, systemic / clinical chemistry / thyroxine (t4) / thyroxine (t4), total + systemic / in life observation / body weight / body weight + ….
The next series has as its system rabbit. Particulars: Prenatal developmental toxicity study; new zealand white; Inhalation; Whole-Body; dose end: 18 GD; group: maternal; systemic / in life observation / body weight / body weight gain.
In series [3] the test system is rat. Particulars: Subchronic oral toxicity in rodents, fischer, Inhalation, Whole-Body, dose end: 13 week, group: systemic.
Series [4] deals with rat. The following applies: Prenatal developmental toxicity study; fischer; Inhalation; Whole-Body; dose end: 15 GD; group: maternal; systemic / in life observation / body weight / body weight + systemic / in life observation / body weight / body weight gain + systemic / in….
Series [5] concerns rat. Particulars: Prenatal developmental toxicity study, sprague dawley, Oral, Gavage/Intubation, dose end: 15 GD. This is another data set of the same source.
The subject of series [6] is rat. The following applies: Subchronic dermal toxicity, sprague dawley, Topical, dose end: 90 day, group: systemic, systemic / in life observation / clinical signs / erythema + systemic / in life observation / clinical signs / scabbing + systemic / ….
The test system of series [7] is rat. The following applies: Sub-acute repeat dose toxicity, sprague dawley, Oral, Gavage/Intubation, dose end: 28 day, group: systemic.
In series [8] the test system is dog. The following applies: Sub-acute repeat dose toxicity; beagle; Oral; Capsule; dose end: 1 month; group: systemic; systemic / in life observation / clinical signs / defecation (diarrhea) + systemic / in life observation / clinical signs / emesis + ….
Series [9] relates to dog. The following applies: Subchronic oral toxicity in nonrodent, beagle, Feed, dose end: 90 day.
Series [10] concerns rat. The following applies: Multigenerational reproductive toxicity study, sprague dawley, Oral, Feed, dose end: 2 generation.
Series [11] has as its system dog. The following applies: Chronic toxicity; beagle; Oral; Feed; dose end: 104 week; group: systemic; systemic / hematology / [other] / [other] + systemic / hematology / eosinophils / eosinophils + systemic / hematology / erythroblast / ….
For series [12], the system named is rat. The following applies: Prenatal developmental toxicity study, wistar, Oral, Gavage/Intubation, dose end: 16 GD.
The mark [13] stands for this setting: group: developmental, developmental / developmental malformation / bone / full supernumerary + developmental / developmental malformation / bone / incomplete ….
Setting [14] is: group: maternal, systemic / hematology / erythrocyte (rbc) count differential / erythrocyte (rbc) + systemic / hematology / reticulocyte / reticulocyte + ….
Where [15] appears, read: systemic / clinical chemistry / alanine aminotransferase (alt/sgpt) / alanine aminotransferase (alt/sgpt) + systemic / clinical chemistry / ….
[16] abbreviates: systemic / in life observation / clinical signs / urogenital staining + systemic / organ weight / kidney / relative to body weight.
Setting [17] is: group: developmental, developmental / developmental malformation / kidney / dilatation + developmental / developmental malformation / ureter / distended.
The mark [18] stands for this setting: group: maternal, systemic / in life observation / body weight / body weight.
Setting [19] is: systemic / clinical chemistry / glucose / glucose + systemic / clinical chemistry / cholesterol / cholesterol.
Setting [20] is: systemic / clinical chemistry / glucose / glucose + systemic / hematology / platelet / platelet + systemic / pathology microscopic / liver….
[21] abbreviates: group: cholinesterase, cholinesterase / cholinesterase / cholinesterase / plasma cholinesterase (che) + cholinesterase / cholinesterase / cholinesterase / ….
Setting [22] is: group: systemic, systemic / hematology / [other] / [other] + systemic / hematology / erythroblast / erythroblast + systemic / hematology / lymphocyte / ….
The mark [23] stands for this setting: group: offspring, systemic / in life observation / body weight / offspring (pup) weight.
[24] abbreviates: group: parental, systemic / in life observation / body weight / body weight gain + systemic / in life observation / food consumption / food consumption + ….
Where [25] appears, read: group: developmental, developmental / developmental malformation / bone / [other] + developmental / developmental malformation / bone / bipartite ossification + ….
Where [26] appears, read: group: maternal, systemic / in life observation / body weight / body weight gain + systemic / in life observation / food consumption / food consumption.

Bounds are passed on as bounds.

As for `CCCCOCCOC(=O)COc1ccc(Cl)cc1Cl` [2,4-D-Butotyl], in the series on rat [1] (setting [13]), the LEL came out at 185 mg/kg/day, the LOAEL came out at 185 mg/kg/day, the NEL was 75 mg/kg/day and the NOAEL is 75 mg/kg/day. In addition, in the series with rat [1] (setting [14]), the LEL amounted to 185 mg/kg/day, the LOAEL came to 185 mg/kg/day, the NEL came out at 75 mg/kg/day and the no observed adverse effect level (NOAEL) was 75 mg/kg/day. Further, in the series on rat [2], the LEL was 145 mg/kg/day, the LOAEL came out at 145 mg/kg/day, the NEL is 22 mg/kg/day and the NOAEL amounted to 22 mg/kg/day.

In the series with rabbit, `CCCCCCOCCO` [2-(Hexyloxy)ethanol] came in with an LEL of 79.2 ppm, an LOAEL of over 79.2 ppm, an NEL of 41.1 ppm and an NOAEL of at least 79.2 ppm. In the series with rat [3] (setting [15]), the LOAEL was over 71 ppm and the NOAEL is at least 71 ppm. Further, in the series on rat [3] (setting [16]), the LEL is 20 ppm and the NEL is under 20 ppm. In the series on rat [4], the LEL was found to be 79.2 ppm, the LOAEL was over 79.2 ppm, the NEL worked out at 41.1 ppm and the no-observed-adverse-effect level (NOAEL) was at least 79.2 ppm.

Consider `CCN1CN(CC)CN(CC)C1` [1,3,5-Triethylhexahydro-s-triazine], for which, in the series on rat [5] (setting [17]), the LEL turned out to be 150 mg/kg/day, the LOAEL was 150 mg/kg/day, the NEL stood at 75 mg/kg/day and the NOAEL worked out at 75 mg/kg/day. In the series with rat [5] (setting [18]), the LEL amounted to 150 mg/kg/day, the lowest observed adverse effect level (LOAEL) is 150 mg/kg/day, the NEL stood at 75 mg/kg/day and the NOAEL was found to be 75 mg/kg/day. Also, in the series with rat [6], the LEL is 10 mg/kg/day, the LOAEL is 10 mg/kg/day, the NEL was under 10 mg/kg/day and the NOAEL was under 10 mg/kg/day.

`COc1cc(C(C)C)c2c(c1)S(=O)(=O)N(COc1cc(=O)n3cccc(OCCN4CCCCC4)c3n1)C2=O`: in the series with rat [7] (setting [19]), the LEL is 30 mg/kg/day and the NEL is under 30 mg/kg/day. Also, in the series on rat [7] (setting [20]), the LOAEL was 100 mg/kg/day and the NOAEL turned out to be 30 mg/kg/day. Further, in the series with dog [8], the LEL worked out at 10 mg/kg/day, the LOAEL was over 100 mg/kg/day, the NEL was under 10 mg/kg/day and the NOAEL is at least 100 mg/kg/day.

On to `Cc1nc(N(C)C)nc(OC(=O)N(C)C)c1C` [Pirimicarb], for which the LEL is 10 mg/kg/day in the series with dog [9] (setting [21]); 4 mg/kg/day in the series on dog [9] (setting [22]); 90.1 mg/kg/day in the series on rat [10] (setting [23]); 81.8 mg/kg/day with rat [10] (setting [24]); 4 mg/kg/day in the series with dog [11]; 75 mg/kg/day with rat [12] (setting [25]). In addition, the LEL in the series on rat [12] (setting [26]) was 75 mg/kg/day. Moreover, the LOAEL in the series on dog [9] (setting [21]) is 10 mg/kg/day; in the series with dog [9] (setting [22]), 4 mg/kg/day; with rat [10] (setting [23]) it was 90.1 mg/kg/day; in the series on rat [10] (setting [24]) it was 81.8 mg/kg/day; with dog [11], 4 mg/kg/day; in the series with rat [12] (setting [25]), 75 mg/kg/day. Further, the LOAEL in the series with rat [12] (setting [26]) was 75 mg/kg/day. The NEL in the series on dog [9] (setting [21]) stood at 4 mg/kg/day; in the series on dog [9] (setting [22]) it was 1.8 mg/kg/day; with rat [10] (setting [23]) it was 23.2 mg/kg/day; with rat [10] (setting [24]), 21.7 mg/kg/day; with dog [11], 1.8 mg/kg/day; with rat [12] (setting [25]) it was 25 mg/kg/day. In addition, in the series on rat [12] (setting [26]), the NEL was determined as 25 mg/kg/day. In addition, the NOAEL stood at 4 mg/kg/day in the series on dog [9] (setting [21]); 1.8 mg/kg/day with dog [9] (setting [22]); 23.2 mg/kg/day in the series with rat [10] (setting [23]); 21.7 mg/kg/day in the series with rat [10] (setting [24]); 1.8 mg/kg/day in the series on dog [11]; 25 mg/kg/day in the series on rat [12] (setting [25]). The NOAEL in the series on rat [12] (setting [26]) was 25 mg/kg/day.

What is called LOAEL is the lowest dose or exposure tested at which an adverse effect was seen. Broadly, the NOAEL is the highest dose or exposure tested at which no adverse effect was seen.

(Values after EPA's ToxRefDB 2.)
